The source of these data is US11414425B2 (priority 2018, dated 2022).

Chain of α5β3γ2 GABAA receptors (P31644 32-462): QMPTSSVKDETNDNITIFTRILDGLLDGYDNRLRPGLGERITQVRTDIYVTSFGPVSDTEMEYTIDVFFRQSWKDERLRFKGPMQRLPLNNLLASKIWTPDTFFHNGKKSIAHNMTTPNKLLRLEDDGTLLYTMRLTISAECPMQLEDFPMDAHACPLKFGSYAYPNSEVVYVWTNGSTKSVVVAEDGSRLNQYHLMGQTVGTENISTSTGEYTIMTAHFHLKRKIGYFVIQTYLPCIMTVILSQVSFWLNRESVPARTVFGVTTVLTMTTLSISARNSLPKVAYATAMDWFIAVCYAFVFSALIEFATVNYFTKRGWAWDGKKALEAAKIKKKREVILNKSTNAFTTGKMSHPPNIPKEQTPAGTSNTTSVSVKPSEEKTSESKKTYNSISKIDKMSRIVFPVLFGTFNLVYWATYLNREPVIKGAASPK
Chain of α5β3γ2 GABAA receptors (P28472 26-473 partner): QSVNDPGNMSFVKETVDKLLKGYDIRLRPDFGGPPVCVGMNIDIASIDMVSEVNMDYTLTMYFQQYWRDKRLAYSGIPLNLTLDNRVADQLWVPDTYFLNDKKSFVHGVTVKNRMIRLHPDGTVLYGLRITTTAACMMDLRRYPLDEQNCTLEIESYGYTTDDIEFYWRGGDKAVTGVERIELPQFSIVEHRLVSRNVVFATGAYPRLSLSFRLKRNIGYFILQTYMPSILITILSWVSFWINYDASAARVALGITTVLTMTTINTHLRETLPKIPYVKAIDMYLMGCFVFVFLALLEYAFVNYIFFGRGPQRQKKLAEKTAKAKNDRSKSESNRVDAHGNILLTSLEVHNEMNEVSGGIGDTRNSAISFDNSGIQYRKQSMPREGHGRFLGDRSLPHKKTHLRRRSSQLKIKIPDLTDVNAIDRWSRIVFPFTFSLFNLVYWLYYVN
Chain of α5β3γ2 GABAA receptors (P18507 40-475): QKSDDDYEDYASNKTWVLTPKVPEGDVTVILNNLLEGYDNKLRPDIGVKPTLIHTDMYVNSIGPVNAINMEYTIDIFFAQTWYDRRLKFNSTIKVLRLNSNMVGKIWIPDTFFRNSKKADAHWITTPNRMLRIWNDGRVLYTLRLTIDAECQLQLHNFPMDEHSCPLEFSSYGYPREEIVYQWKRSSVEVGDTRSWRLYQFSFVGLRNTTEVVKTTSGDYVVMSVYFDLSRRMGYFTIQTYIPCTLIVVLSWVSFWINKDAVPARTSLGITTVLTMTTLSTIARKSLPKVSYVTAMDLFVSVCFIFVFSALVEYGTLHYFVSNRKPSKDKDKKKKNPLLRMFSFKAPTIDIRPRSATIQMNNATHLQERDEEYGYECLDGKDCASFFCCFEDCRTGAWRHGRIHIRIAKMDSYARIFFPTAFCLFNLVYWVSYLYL

One assay has as its target α5β3γ2 GABAA receptors (Homo sapiens, UniProt P18507+P31644). Put plainly: [3H]Ro15-1788 binding, membranes of Ltk cells stably expressing α5β3γ2 GABAA receptors.
Conditions: not given
For `Cn1ccc(C#Cc2ncn3c2Cc2cnnn2-c2cc(Cl)ccc2-3)n1` [Compound 661], the Ki is less than 100 nM.

As for `Fc1cccc(Cc2nnn3c2Cc2c(-c4nc(-c5ccccc5)no4)ncn2-c2ccc(C(F)(F)F)cc2-3)c1` [Compound 551], the inhibition constant Ki was 100 to 1000 nM.

Molecule `COc1ccc2c(c1)-n1nncc1Cc1c(-c3cn(-c4ccccc4)nn3)ncn1-2` [Compound 524] registered a Ki of 100 to 1000 nM.

`COc1ccc2c(c1)-n1nncc1Cc1c(C3=NCC(C4CCCCC4)O3)ncn1-2` (racemic) [Compound 690] yielded a Ki of 100 to 1000 nM.

For `CCCc1noc(-c2ncn3c2Cc2c(Cc4cccc(F)c4)nnn2-c2cc(Cl)ccc2-3)n1` [Compound 480], the Ki lay in the range of 100 to 1000 nM.

`Cc1noc(-c2ncn3c2Cc2c(Cc4ccc(F)cc4)nnn2-c2cc(C(F)(F)F)ccc2-3)n1` [Compound 484] had a Ki of less than 100 nM.

As for `CC(C)Oc1ccc(C#Cc2ncn3c2Cc2cnnn2-c2cc(Cl)ccc2-3)cn1` [Compound 697], the Ki is less than 100 nM.

Regarding `COc1n[nH]cc1C#Cc1ncn2c1Cc1cnnn1-c1cc(Cl)ccc1-2` [Compound 662], the Ki was less than 100 nM.

With `Clc1ccc2c(c1)-n1nncc1Cc1c(COc3ccccc3)ncn1-2` [Compound 548], the Ki is less than 100 nM.

Still in this assay, the particulars now being: ranges; inhibition of [3H]Ro15-1788 binding.
The molecule `COCc1nnc2n1Cc1c(C#Cc3ccc(F)cn3)ncn1-c1ccc(Cl)cc1-2` [Compound 572] yielded a Ki of less than 100 nM.

On to `COCc1nnc2n1Cc1c(C#Cc3ccc(C)nc3)ncn1-c1ccc(Cl)cc1-2` [Compound 556], for which the Ki is 100 to 1000 nM.

`COCc1nnc2n1Cc1c(C#Cc3cnc(OC)cn3)ncn1-c1ccc(Cl)cc1-2` [Compound 578] gave a Ki of less than 100 nM.

In turn, `Fc1ccc(-n2cc(-c3ncn4c3Cc3cnnn3-c3cc(Cl)ccc3-4)nn2)cc1` [Compound 525] came in with a Ki of less than 100 nM.

`Clc1ccc2c(c1)-n1nncc1Cc1c(C3=NCC(c4ccncc4)O3)ncn1-2` (centres unmarked) [Compound 629] returned a Ki of less than 100 nM.

Molecule `COCc1nnc2n1Cc1c(C#Cc3ccc(O)nc3)ncn1-c1ccc(Cl)cc1-2` [Compound 568] returned a Ki of less than 100 nM.

Consider `Clc1ccc([C@H]2CN=C(c3ncn4c3Cc3cnnn3-c3cc(Cl)ccc3-4)O2)cc1` [Compound 720], for which the Ki is less than 100 nM.

Molecule `Clc1ccc2c(c1)-n1nncc1Cc1c(C#Cc3ccc(-n4cccc4)cc3)ncn1-2` [Compound 702] gave an inhibitory constant (Ki) of less than 100 nM.

In turn, `FC(F)(F)c1ccc2c(c1)-n1nncc1Cc1c(C#Cc3ccc(Cl)cc3)ncn1-2` [Compound 502] yielded a Ki of less than 100 nM.

`CC(C)c1noc(-c2ncn3c2Cc2c(Cc4ccc(F)cc4)nnn2-c2cc(Cl)ccc2-3)n1` [Compound 489] came in with a Ki of less than 100 nM.

`CCOC(=O)c1ncn2c1Cc1c(Cc3ccccc3Cl)nnn1-c1cc(C)ccc1-2` [Compound 54] gave a Ki of less than 100 nM.

Take `CC(C)c1noc(-c2ncn3c2Cc2c(Cc4ccc(F)cc4)nnn2-c2cc(C(F)(F)F)ccc2-3)n1` [Compound 490]: the Ki is less than 100 nM.

Consider `Clc1ccc([C@@H]2CN=C(c3ncn4c3Cc3cnnn3-c3cc(Cl)ccc3-4)O2)cc1` [Compound 719], for which the Ki is less than 100 nM.

The molecule `COCc1nnc2n1Cc1c(C#Cc3ccc(Cl)cn3)ncn1-c1ccc(OC)cc1-2` [Compound 591] yielded a Ki of less than 100 nM.

The molecule `COCc1nnc2n1Cc1c(C#Cc3ccc(-n4cccc4)cc3)ncn1-c1ccc(OC)cc1-2` [Compound 713] had a Ki of less than 100 nM.

Consider `COCc1nnc2n1Cc1c(C#Cc3ccc(Cl)cn3)ncn1-c1ccc(Cl)cc1-2` [Compound 579], for which the Ki is less than 100 nM.

Molecule `C#Cc1ncn2c1Cn1c(COCC(F)(F)F)nnc1-c1cc(Cl)ccc1-2` [Compound 342] had a Ki of less than 100 nM.

`COc1ccc(C#Cc2ncn3c2Cc2cnnn2-c2cc(C(F)(F)F)ccc2-3)nc1` [Compound 554] gave a Ki of less than 100 nM.

Molecule `COCc1nnc2n1Cc1c(C#Cc3ncc(OC)cn3)ncn1-c1ccc(OC)cc1-2` [Compound 593] returned a Ki of less than 100 nM.

For `COCc1nnc2n1Cc1c(C)ncn1-c1ccc(OC)cc1-2` [Compound 329], the Ki was more than 1000 nM.

Consider `COCc1nnc2n1Cc1c(C#Cc3ccc(OC(F)(F)F)cn3)ncn1-c1ccc(OC)cc1-2` [Compound 613], for which the inhibitory constant (Ki) is less than 100 nM.

Consider `CC(C)c1noc(-c2ncn3c2Cc2c(Cc4ccc(F)cc4)nnn2-c2cc(OC(F)(F)F)ccc2-3)n1` [Compound 483], for which the Ki was less than 100 nM.

For the molecule `COCc1nnc2n1Cc1c(C#Cc3cncnc3)ncn1-c1ccc(Cl)cc1-2` [Compound 569], the Ki is less than 100 nM.

Regarding `CC1(C)OC(c2ncn3c2Cc2cnnn2-c2cc(OC(F)(F)F)ccc2-3)=N[C@@H]1c1ccccc1` [Compound 510], the Ki is less than 100 nM.

In turn, `COc1ccc(C#Cc2ncn3c2Cc2cnnn2-c2cc(OC(F)(F)F)ccc2-3)cc1` [Compound 497] came in with a Ki of less than 100 nM.

With `COCc1nnc2n1Cc1c(C#Cc3ccc(OC)c(F)n3)ncn1-c1ccc(OC)cc1-2` [Compound 583], the Ki lay in the range of 100 to 1000 nM.

Turning to `COCc1nnc2n1Cc1c(-c3nc(C)no3)ncn1-c1cccc(OC)c1-2` [Compound 472], the Ki is 100 to 1000 nM.

In turn, `COCc1nnc2n1Cc1c(C#Cc3ccc(OC(C)C)nc3)ncn1-c1ccc(Cl)cc1-2` [Compound 708] returned a Ki of less than 100 nM.

`Cn1nccc1C#Cc1ncn2c1Cc1cnnn1-c1cc(Cl)ccc1-2` [Compound 660] came in with a Ki of less than 100 nM.

`COCc1nnc2n1Cc1c(C#Cc3ncccn3)ncn1-c1ccc(Cl)cc1-2` [Compound 571] returned a Ki of less than 100 nM.

`COCc1nnc2n1Cc1c(C#Cc3ccc(C(F)(F)F)cn3)ncn1-c1ccc(OC)cc1-2` [Compound 587] registered a Ki of less than 100 nM.

`CCc1cncc(C#Cc2ncn3c2Cn2c(COC)nnc2-c2cc(OC)ccc2-3)c1` [Compound 599] returned a Ki of less than 100 nM.

Turning to `Fc1cccc(OCc2ncn3c2Cc2cnnn2-c2cc(Cl)ccc2-3)c1` [Compound 546], the Ki is less than 100 nM.

`FC(F)(F)c1ccc2c(c1)-n1nncc1Cc1c(C3=N[C@H](c4ccccc4)CO3)ncn1-2` [Compound 506] yielded a Ki of less than 100 nM.

The molecule `CC(C)c1noc(-c2ncn3c2Cc2c(Cc4cccc(F)c4)nnn2-c2cc(C(F)(F)F)ccc2-3)n1` [Compound 487] registered a Ki of 100 to 1000 nM.

The molecule `COCc1nnc2n1Cc1c(C#Cc3cncnc3)ncn1-c1ccc(OC)cc1-2` [Compound 592] had a Ki of less than 100 nM.

`C#Cc1ccc2c(c1)-c1nnc(COC)n1Cc1c(C3=N[C@H](CC(C)C)CO3)ncn1-2` [Compound 280]: the inhibition constant (Ki) was less than 100 nM.

As to `COCc1nnn2c1Cc1c(C#Cc3ccn(C)n3)ncn1-c1ccc(Cl)cc1-2` [Compound 643], the Ki is less than 100 nM.

`COCc1nnc2n1Cc1c(C#Cc3cccc(C)n3)ncn1-c1ccc(OC)cc1-2` [Compound 598] registered a Ki of less than 100 nM.

Regarding `Fc1ccc(Cc2nnn3c2Cc2c(-c4ncco4)ncn2-c2ccc(OC(F)(F)F)cc2-3)cc1` [Compound 495], the Ki was in the range of 100 to 1000 nM.

For the molecule `COCc1nnc2n1Cc1c(C#Cc3cnc(OC)nc3)ncn1-c1ccc(OC)cc1-2` [Compound 584], the Ki lay in the range of 100 to 1000 nM.

`COCc1nnc2n1Cc1c(C#Cc3ncc(C)cn3)ncn1-c1ccc(OC)cc1-2` [Compound 595]: the Ki lay in the range of 100 to 1000 nM.

Consider `COCc1nnc2n1Cc1c(C#Cc3c[nH]nc3OC)ncn1-c1ccc(OC)cc1-2` [Compound 657], for which the Ki is less than 100 nM.

The molecule `Fc1cccc(Cc2nnn3c2Cc2c(-c4nc(-c5ccccc5)no4)ncn2-c2ccc(OC(F)F)cc2-3)c1` [Compound 552] returned a Ki of 100 to 1000 nM.
